Laboratory results as given in patent publication US11472799B2, “Serine threonine kinase (AKT) degradation / disruption compounds and methods of use” (Icahn School of Medicine at Mount Sinai, priority 2018, dated 2022).
“Also recorded” adds a separate entry of the source.

Assays:
[1] = phase I clinical trial (Saura et al., 2017); cited from earlier work
[2] = tested on: colon cancer xenograft with RAS/RAF activation albeit with PIK3CA mutation; settings: alone; xenograft with RAS/RAF activation and PIK3CA mutation; cited from earlier work
[3] = tested on: AKT; test: Western blot of AKT protein levels in PC-3 cells; assay type: cell-based, human; settings: 0.3 μM, 1 μM, 3 μM, or 10 μM for 24 h (FIG. 4B)
Procedure: PC-3, U87MG, HCC1143, MDA-MB-231, MDA-MB-468, BT474 and MCF-7 cell lines were purchased from ATCC. Cell lines were regularly tested in the lab for mycoplasma. All cells were cultured at 37° C. and 5% CO2. PC-3, U87MG, MDA-MB-231, MCF-7 and BT474 cells were cultured in 1×DMEM (Corning, 10-013-CV) with 10% fetal bovine serum (Atlanta Biologicals S11150) and 1× Penicillin/Streptomycin. HCC1143 cells were cultured in RPMI (Corning, 10-040-CV) medium with 10% fetal bovine serum (Atlanta Biologicals S11150) and 1× Penicillin/Streptomycin. Cells were split using 0.05% or 0.25% trypsin (Corning 25-051-Cl or 25-053-Cl, respectively) before they reached full confluence and media was changed every 3-4 days. Cells were treated with compounds individually at different concentrations for 24 hrs. Cells were treated with DMSO, VHL, or PML alone as controls.
(§1) Cells were lysed in 2× sample buffer (125 mM Tris-HCl at pH 6.8, 10% βME, 2% SDS, 20% glycerol, 0.05% Bromophenol Blue, 8 M urea). Protein lysates were loaded into 4-12% Bis-Tris gels and resolved by electrophoresis. Samples were then blotted on PVDF membrane (Millipore IPVH00010) using the wet transfer technique (Invitrogen). Membranes were blocked in 5% milk-TBST for 1 hour, washed in TBST for 10 min, and incubated in primary antibody in 5% milk-TBST or 5% BSA-TBST at 4° C. for 16 h. Membranes were rinsed (3×6 min) in TBST and incubated in horseradish peroxidase-conjugated secondary antibodies in 5% milk-TBST for 1 hour and rinsed again in TBST (3×6 min). Membranes were visualized using the chemiluminescence system (Thermo 34080, 37075) on autoradiography film (Denville E3018). Primary Antibodies: R-actin (Sigma A5316), p-AKT (Ser473 CST-9721), total AKT (CST-9272), p-S6 (Ser240/244, CST-5364), p-PRAS40 (Thr246, CST-2997). Secondary Antibodies: Mouse (Thermo 31432), Rabbit (Thermo 31460).

[4] = tested on: AKT; test: Western blot of AKT protein levels in MDA-MB-468 cells; assay type: cell-based; settings: 0.3 μM, 1 μM, 3 μM, or 10 μM for 24 h
Procedure: as §1

[5] = tested on: AKT; test: Western blot of AKT protein levels and downstream signaling in BT474 cells; assay type: cell-based, human; settings: for suppression of AKT protein level and AKT activity: Western blot (FIGS. 1, 3, 4)
Method in brief: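 Lysates were immunoblotted with chemiluminescent detection for p-AKT Ser473, total AKT, p-S6 Ser240/244 and p-PRAS40 Thr246, using actin as loading control.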

[6] = tested on: AKT; test: Western blot of AKT protein levels in U87MG cells; assay type: cell-based; settings: 0.3 μM, 1 μM, 3 μM, or 10 μM for 24 h
Procedure: as §1

[7] = tested on: AKT; test: Combination of AKT degrader and mTOR inhibitor, Western blot in BT474 cells; assay type: cell-based, human; settings: 24 h, combined with an mTOR inhibitor (Torin1 or Rapamycin)
Procedure: as §1

[8] = tested on: HCC1143 cells; test: Colony formation (Crystal Violet) in HCC1143 cells; assay type: cell-based; settings: 0.1-10 μM for 2 weeks (FIG. 8)
Procedure: (§2) PC-3, MDA-MB-468, HCC1143, and MDA-MB-231 cells were treated with DMSO, AZD5363 or XF050-21 at 0.1 μM, 0.3 μM, 1 μM, 3 μM, or 10 μM for 2 weeks.
(§3) Cells were cultured for 12-17 days in the presence of different compounds. Media with compound was replenished every two days. At the end of the experiment, media was aspirated and viable cells were stained with 0.5% crystal violet dye.

[9] = tested on: MDA-MB-468 cells; test: Colony formation (Crystal Violet) in MDA-MB-468 cells; assay type: cell-based; settings: 0.1-10 μM for 2 weeks (FIG. 8)
Procedure: as §2, §3

[10] = tested on: AKT; test: Time course Western blot of AKT degradation in BT474 cells; assay type: cell-based, human; settings: for time point for the most significant AKT degradation: BT474 cells (FIGS. 2 and 5); for time-dependent reduction of AKT, p-AKT, P-PRAS40 (T246), and P-S6 (S240/244) protein levels: BT474 cells, 1 μM
Procedure: as §1

[11] = tested on: AKT; test: Rescue of XF050-21 induced AKT degradation by pretreatment in BT474 cells; assay type: cell-based, human
Procedure: BT474 Cells were pre-treated with DMSO, VHL-1 (1 mM), MLN4924 (1 μM), MG-132 (20 μM) or AZD5363 (1 μM) for 2 h, before being treated with the 1 μM XF050-21 compounds for 24 h.
as §1

[12] = tested on: MDA-MB-468 cells; test: Cell proliferation (IncuCyte live cell imaging) in MDA-MB-468 cells; assay type: cell-based; settings: MDA-MB-468 cells (FIG. 7)
Procedure: (§4) 1-3×10^3 PC-3 or MDA-MB-468 cells were seeded in 96-well plates in triplicates and treated at the indicated compound concentrations. Cells were monitored using the IncuCyte® live cell imaging system (Essen Bioscience™, Ann Arbor, Mich.) which was placed in a cell culture incubator operated at 37° C. and 5% CO2. Cell confluence was determined using calculations derived from phase-contrast images. The concentration for 50% of maximal inhibition of cell proliferation (GI50) values were determined by fitting to a standard four-parameter logistic using GraphPad Prism® v5.
(§5) Experiments were carried out in 96-well plates in triplicates. A total of 1-3×10^3 cells per well were grown in the presence of 1 μM of AZD5363 (Selleckchem), 1 μM of selected degrader compounds. Cells were then monitored for 3-4 days using the IncuCyte live cell imaging system (Essen BioScience, Ann Arbor, Mich., USA), which was placed in a cell culture incubator operated at 37° C. and 5% CO2. Cell confluence was determined using calculations derived from phase-contrast images. For measurement of cell death DRAQ7 (Cell Signaling #7406) at 1.5 μM was included in the medium and apoptotic red counts were measured in IncuCyte™ FLR automated incubator microscope.

[13] = tested on: PC-3 cells; test: Cell proliferation (IncuCyte live cell imaging) in PC-3 cells; assay type: cell-based, human; settings: PC-3 cells (FIG. 7)
Procedure: as §4, §5

[14] = tested on: PC-3 cells; test: Colony formation (Crystal Violet) in PC-3 cells; assay type: cell-based, human; settings: 0.1-10 μM for 2 weeks (FIG. 8)
Procedure: as §2, §3

[15] = tested on: AKT; test: Time course Western blot of AKT degradation in PC-3 cells; assay type: cell-based, human; settings: PC3 cells, 1 μM
Procedure: BT474 cells and PC-3 cells were treated with DMSO or the indicated compounds at a fixed concentration of 1 μM for 1, 2, 4, 8, 12, or 24 h. […] The maximum degradation of AKT and inhibition of downstream signaling were observed after 12 h of treatment in PC-3 cells (FIG. 5B).
as §1

[16] = tested on: MDA-MB-231 cells; test: Colony formation (Crystal Violet) in MDA-MB-231 cells; assay type: cell-based; settings: 0.1-10 μM for 2 weeks (FIG. 8)
Procedure: as §2, §3

[17] = Mouse PK study, plasma exposure; assay type: in vivo, Swiss Albino mice
Procedure: Standard PK studies were conducted using male Swiss Albino mice. A single 75 mg/kg intraperitoneal (IP) injection of XF050-21 was evaluated. Plasma concentrations of XF050-21 reported at each of the six time points (30 min, 1 h, 2 h, 4 h, 8 h, and 12 h post dosing) are the average values from 3 test animals.

In the case of `CC(C)NC[C@@H](C(=O)N1CCN(c2ncnc3c2[C@H](C)C[C@H]3O)CC1)c1ccc(Cl)cc1` [GDC0068], the objective tumor shrinkage [1] is given as “failed to result in significant objective tumor shrinkage” and the “efficacy in colon cancer xenograft” value [2] is given as “not very effective”.

For `NC1(C(=O)N[C@@H](CCO)c2ccc(Cl)cc2)CCN(c2ncnc3[nH]ccc23)CC1` [AZD5363, 4-amino-N-[(1S)-1-(4-chlorophenyl)-3-hydroxypropyl]-1-(7H-pyrrolo[2,3-d]pyrimidin-4-yl)piperidine-4-carboxamide, reference compound], the AKT protein levels [3] was “no effect”, the pAKT levels [3] was “increased” and the AKT protein levels [4] was “no effect”. The pAKT levels [4] was “increased”, the AKT protein levels ([5]; 1 μM, 5 μM, or 10 μM for 24 h) was “no effect” and the pAKT levels ([5]; 1 μM, 5 μM, or 10 μM for 24 h) was “increased”. For the same compound, the AKT protein levels ([5]; 0.01-1 μM for 24 h (FIG. 4A)) was “no effect”, the pAKT levels ([5]; 0.01-1 μM for 24 h (FIG. 4A)) was “increased” and the AKT protein levels [6] was “no effect”. The pAKT levels [6] was “increased”.

With `Cc1ncsc1-c1ccc(CNC(=O)[C@@H]2C[C@@H](O)CN2C(=O)[C@@H](NC(=O)CCCCCCCCCC(=O)N2CCN(CC[C@H](NC(=O)C3(N)CCN(c4ncnc5[nH]ccc45)CC3)c3ccc(Cl)cc3)CC2)C(C)(C)C)cc1` [XF050-21, 4-amino-N-((S)-1-(4-chlorophenyl)-3-(4-(11-(((S)-1-((2S,4R)-4-hydroxy-2-((4-(4-methylthiazol-5-yl)benzyl)carbamoyl)pyrrolidin-1-yl)-3,3-dimethyl-1-oxobutan-2-yl)amino)-11-oxoundecanoyl)piperazin-1-yl)propyl)-1-(7H-pyrrolo[2,3-d]pyrimidin-4-yl)piperidine-4-carboxamide] the “AKT protein levels and downstream signaling under combination treatment” value [7] was “reduced AKT protein levels and inhibited downstream signaling; also recorded: significantly reduced the AKT protein levels and AKT downstream signaling”, the “colony formation inhibition compared with AZD5363” value [8] was “more effective in inhibiting cancer cell proliferation than AZD5363; also recorded: better colony formation inhibition than AZD5363” and the “colony formation inhibition compared with AZD5363” value [9] was “more effective in inhibiting cancer cell proliferation than AZD5363; also recorded: better colony formation inhibition than AZD5363”. For the same compound, the AKT protein levels [3] was “significantly reduced”, the AKT protein levels [4] was “significantly reduced” and the “time point for the most significant AKT degradation” value [10] was 24 h. For the same compound, the “time-dependent reduction of AKT, p-AKT, P-PRAS40 (T246), and P-S6 (S240/244) protein levels” value (“time-dependent reduction of AKT, p-AKT” for short) [10] was “time-dependently reduce”, the “suppression of AKT protein level and AKT activity” value [5] was “effective in suppressing both AKT protein level and AKT activity” and the “mechanism of induced AKT protein degradation” value [11] was “mediated by hijacking the E3 ubiquitin ligase VHL”. For the same compound, the “rescue of AKT degradation by pretreatment” value ([11]; 2 h pretreatment with VHL-1, MLN4924, MG-132 or AZD5363, then 1 μM XF050-21 for 24 h) was “can be rescued by VHL-1, MLN4924, MG-132 or AZD5363 pretreatment; also recorded: can be blocked by pretreatment of VHL-1, MLN4924, MG132, and AZD5363; also recorded: can be rescued by pretreatment of the cells with VHL-1, MLN4924, MG132 and AZD5363”, the “cell proliferation inhibition compared with AZD5363” value [12] was “more effective than AZD5363; also recorded: better cell proliferation inhibition activity than AZD5363” and the “cell proliferation inhibition compared with AZD5363” value [13] was “more effective than AZD5363; also recorded: better cell proliferation inhibition activity than AZD5363”. The AKT protein levels [6] was “significantly reduced”, the “colony formation inhibition compared with AZD5363” value [14] was “more effective in inhibiting cancer cell proliferation than AZD5363; also recorded: better colony formation inhibition than AZD5363” and the “time-dependent reduction of AKT, p-AKT” value [15] was “time-dependently reduces”. For the same compound, the “colony formation inhibition compared with AZD5363” value [16] was “more effective in inhibiting cancer cell proliferation than AZD5363; also recorded: better colony formation inhibition than AZD5363”, the “clinical observations during PK study” value ([17]; male Swiss Albino mice, single 75 mg/kg IP) was “no abnormal clinical observations noted” and the bioavailability in mice ([17]; single 75 mg/kg IP injection, plasma) was “Bioavailable”.

With `Cc1ncsc1-c1ccc([C@H](C)NC(=O)[C@@H]2C[C@@H](O)CN2C(=O)[C@@H](NC(=O)CCCCCCCCCCNC(=O)CCNC[C@@H](C(=O)N2CCN(c3ncnc4c3[C@H](C)C[C@H]4O)CC2)c2ccc(Cl)cc2)C(C)(C)C)cc1` [XF042-162, (2S,4R)-1-((S)-2-(11-(3-(((S)-2-(4-chlorophenyl)-3-(4-((5R,7R)-7-hydroxy-5-methyl-6,7-dihydro-5H-cyclopenta[d]pyrimidin-4-yl)piperazin-1-yl)-3-oxopropyl)amino)propanamido)undecanamido)-3,3-dimethylbutanoyl)-4-hydroxy-N-((S)-1-(4-(4-methylthiazol-5-yl)phenyl)ethyl)pyrrolidine-2-carboxamide] the “time point for the most significant AKT degradation” value [10] was 24 h and the “time-dependent reduction of AKT, p-AKT” value [10] was “time-dependently reduce”.

In the case of `Cc1ncsc1-c1ccc(CNC(=O)[C@@H]2C[C@@H](O)CN2C(=O)[C@@H](NC(=O)CCCCCCCCCCNC(=O)CCNC[C@@H](C(=O)N2CCN(c3ncnc4c3[C@H](C)C[C@H]4O)CC2)c2ccc(Cl)cc2)C(C)(C)C)cc1` [XF038-166A, (2S,4R)-1-((S)-2-(11-(3-(((S)-2-(4-chlorophenyl)-3-(4-((5R,7R)-7-hydroxy-5-methyl-6,7-dihydro-5H-cyclopenta[d]pyrimidin-4-yl)piperazin-1-yl)-3-oxopropyl)amino)propanamido)undecanamido)-3,3-dimethylbutanoyl)-4-hydroxy-N-(4-(4-methylthiazol-5-yl)benzyl)pyrrolidine-2-carboxamide], the “time point for the most significant AKT degradation” value [10] is reported as 24 h, the “time-dependent reduction of AKT, p-AKT” value [10] is reported as “time-dependently reduces” and the “suppression of AKT protein level and AKT activity” value [5] is reported as “effective in suppressing both AKT protein level and AKT activity”.
